This passage reports IC50 results from ChEMBL document CHEMBL1152405, “Bis-anthracenyl isoxazolyl amides have enhanced anticancer activity” (Bioorg Med Chem Lett, 2009).

The test relates to SNB-19. Briefly: Antitumor activity against human SNB19 cells after 24 hrs. Type of test: functional, cell-based. The note with it: SNB-19, 24 h.

In general, IC50 refers to the concentration that gives 50% inhibition. A low value points to greater potency.

In turn, `Cc1onc(-c2c3ccccc3c(Cl)c3ccccc23)c1C(=O)Nc1cc(C(=O)NCCCN(C)C)n(C)c1` showed an IC50 of 6.21 µM.
